# Measured values published in patent US9854800B2, “Herbicidal compositions comprising 4-amino-3-chloro-6-(4-chloro-2-fluoro-3-methoxyphenyl)-5-fluoropyridine-2-carboxylic acid or a derivative thereof and chlormequat chloride” (priority 2015, dated 2018).
# Assays:
# Format in all cases: in vivo
# Settings in all cases: 21 DAA
# [1] = tested on: BRSNW = Brassica napus napus (winter) (winter rape); assay: Post-emergent foliar herbicidal activity, greenhouse: BRSNW
# Method: (§1) Seeds of the desired test plant species were planted in Sun Gro MetroMix® 306 planting mixture, which typically has a pH of 6.0 to 6.8 and an organic matter content of about 30 percent, in plastic pots with a surface area of 103.2 square centimeters (cm^2). When required to ensure good germination and healthy plants, a fungicide treatment and/or other chemical or physical treatment was applied. The plants were grown for 7-36 days in a greenhouse with an approximate 14 hour (h) photoperiod which was maintained at about 18° C. during the day and 17° C. during the night. Nutrients and water were added on a regular basis and supplemental lighting was provided with overhead metal halide 1000-Watt lamps as necessary. The plants were employed for testing when they reached the second or third true leaf stage.
# (§2) Treatments consisted of the compound of formula (I) and a second herbicide alone (chlormequat). Weighed amounts of the compound of formula (I) were placed in 25 milliliter (mL) glass vials and dissolved in 4 mL of a 97:3 v/v mixture of acetone and DMSO to obtain concentrated stock solutions. Compound requirements are based upon a 12 mL application volume at a rate of 187 liters per hectare (L/ha). Spray solutions of the second herbicide and compound of formula (I) mixtures were prepared by adding the stock solutions to the appropriate amount of dilution solution to form 12 mL spray solution with active ingredients in two-way combinations. Formulated compounds were applied to the plant material with an overhead Mandel track sprayer equipped with 8002E nozzles calibrated to deliver 187 L/ha over an application area of 0.503 square meters (m^2) at a spray height of […] above average plant canopy. Control plants were sprayed in the same manner with the solvent blank.
# (§3) The treated plants and control plants were placed in a greenhouse as described above and watered by sub-irrigation to prevent wash-off of the test compounds. After 20-22 days, the condition of the test plants as compared with that of the control plants was determined visually and scored on a scale of 0 to 100 percent where 0 corresponds to no injury and 100 corresponds to complete kill.
# (§4) Colby's equation was used to determine the herbicidal effects expected from the mixtures (Colby, S. R. 1967. Calculation of the synergistic and antagonistic response of herbicide combinations. Weeds 15:20-22.) .
# (§5) The following equation was used to calculate the expected activity of mixtures containing two active ingredients, A and B: Expected=A+B−(A×B/100)
# (§6) A=observed efficacy of active ingredient A at the same concentration as used in the mixture.
# (§7) B=observed efficacy of active ingredient B at the same concentration as used in the mixture.
# [2] = tested on: CHEAL = Chenpodium album L. (common lambsquarters); assay: Post-emergent foliar herbicidal activity, greenhouse: CHEAL
# Method: as §1, §2, §3, §4, §5, §6, §7
# [3] = tested on: CIRAR = Cirsium arvense (L.) Scop. (Canada thistle); assay: Post-emergent foliar herbicidal activity, greenhouse: CIRAR
# Method: as §1, §2, §3, §4, §5, §6, §7
# [4] = tested on: GALAP = Galium aparine L. (catchweed bedstraw); assay: Post-emergent foliar herbicidal activity, greenhouse: GALAP
# Method: as §1, §2, §3, §4, §5, §6, §7
# [5] = tested on: KCHSC = Kochia scoparia (L.) Schrad. (kochia); assay: Post-emergent foliar herbicidal activity, greenhouse: KCHSC
# Method: as §1, §2, §3, §4, §5, §6, §7
# [6] = tested on: LAMPU = Lamium purpureum L. (purple deadnettle); assay: Post-emergent foliar herbicidal activity, greenhouse: LAMPU
# Method: as §1, §2, §3, §4, §5, §6, §7
# [7] = tested on: MATCH = Matricaria recutita L. (wild chamomile); assay: Post-emergent foliar herbicidal activity, greenhouse: MATCH
# Method: as §1, §2, §3, §4, §5, §6, §7
# [8] = tested on: PAPRH = Papaver rhoeas L. (common poppy); assay: Post-emergent foliar herbicidal activity, greenhouse: PAPRH
# Method: as §1, §2, §3, §4, §5, §6, §7
# [9] = tested on: SASKR = Salsola tragus L. (Russian thistle); assay: Post-emergent foliar herbicidal activity, greenhouse: SASKR
# Method: as §1, §2, §3, §4, §5, §6, §7
# [10] = tested on: SINAR = Sinapis arvensis L. (wild mustard); assay: Post-emergent foliar herbicidal activity, greenhouse: SINAR
# Method: as §1, §2, §3, §4, §5, §6, §7
# [11] = tested on: STEME = Stellaria media (common chickweed); assay: Post-emergent foliar herbicidal activity, greenhouse: STEME
# Method: as §1, §2, §3, §4, §5, §6, §7
# [12] = tested on: VERPE = Veronica persica Poir. (Persian speedwell); assay: Post-emergent foliar herbicidal activity, greenhouse: VERPE
# Method: as §1, §2, §3, §4, §5, §6, §7
# [13] = tested on: VIOTR = Viola tricolor L. (wild violet); assay: Post-emergent foliar herbicidal activity, greenhouse: VIOTR
# Method: as §1, §2, §3, §4, §5, §6, §7
# [14] = tested on: TRZAS = Triticum aestivum (spring) (spring wheat); assay: Post-emergent foliar herbicidal activity, greenhouse: TRZAS (crop)
# Method: as §1, §2, §3, §4, §5, §6, §7
# [15] = tested on: HORVS = Hordeum vulgare L. (spring barley); assay: Post-emergent foliar herbicidal activity, greenhouse: HORVS (crop)
# Method: as §1, §2, §3, §4, §5, §6, §7
# [16] = Compound I 0 + Chlormequat Chloride 279 g ai/ha
# [17] = Compound I 0 + Chlormequat Chloride 558 g ai/ha
# [18] = Compound I 0 + Chlormequat Chloride 1119 g ai/ha
# [19] = Compound I 2.5 + Chlormequat Chloride 0 g ai/ha
# [20] = Compound I 5 + Chlormequat Chloride 0 g ai/ha
# [21] = Compound I 10 + Chlormequat Chloride 0 g ai/ha
compound,measurement,setting,value
"C[N+](C)(C)CCCl.[Cl-] [Chlormequat Chloride, (2-chloroethyl)trimethylammonium chloride]",BRSNW Obs,[1]; [16],0%
same,BRSNW Obs,[1]; [17],3%
same,BRSNW Obs,[1]; [18],5%
same,CHEAL Obs,[2]; [16],0%
same,CHEAL Obs,[2]; [17],3%
same,CIRAR Obs,[3]; [16],5%
same,CIRAR Obs,[3]; [17],5%
same,CIRAR Obs,[3]; [18],10%
same,GALAP Obs,[4]; [16],3%
same,GALAP Obs,[4]; [17],5%
same,GALAP Obs,[4]; [18],20%
same,KCHSC Obs,[5]; [16],5%
same,KCHSC Obs,[5]; [17],5%
same,KCHSC Obs,[5]; [18],7%
same,LAMPU Obs,[6]; [16],15%
same,LAMPU Obs,[6]; [17],15%
same,LAMPU Obs,[6]; [18],30%
same,MATCH Obs,[7]; [16],0%
same,MATCH Obs,[7]; [17],0%
same,MATCH Obs,[7]; [18],27%
same,PAPRH Obs,[8]; [16],5%
same,PAPRH Obs,[8]; [17],5%
same,PAPRH Obs,[8]; [18],7%
same,SASKR Obs,[9]; [16],0%
same,SASKR Obs,[9]; [17],0%
same,SASKR Obs,[9]; [18],7%
same,SINAR Obs,[10]; [16],8%
same,SINAR Obs,[10]; [17],15%
same,STEME Obs,[11]; [16],8%
same,STEME Obs,[11]; [17],8%
same,STEME Obs,[11]; [18],7%
same,VERPE Obs,[12]; [16],10%
same,VERPE Obs,[12]; [17],10%
same,VERPE Obs,[12]; [18],13%
same,VIOTR Obs,[13]; [16],0%
same,VIOTR Obs,[13]; [17],0%
same,VIOTR Obs,[13]; [18],3%
same,TRZAS Obs,[14]; [16],0%
same,TRZAS Obs,[14]; [17],8%
same,HORVS Obs,[15]; [16],0%
same,HORVS Obs,[15]; [17],0%
"COc1c(Cl)ccc(-c2nc(C(=O)OCc3ccccc3)c(Cl)c(N)c2F)c1F [Compound I, benzyl 4-amino-3-chloro-6-(4-chloro-2-fluoro-3-methoxyphenyl)-5-fluoropyridine-2-carboxylate]",BRSNW Obs,[1]; [19],18%
same,BRSNW Obs,[1]; [20],13%
same,BRSNW Obs,[1]; [21],13%
same,CHEAL Obs,[2]; [19],50%
same,CHEAL Obs,[2]; [20],58%
same,CIRAR Obs,[3]; [19],48%
same,CIRAR Obs,[3]; [20],39%
same,CIRAR Obs,[3]; [21],60%
same,GALAP Obs,[4]; [19],55%
same,GALAP Obs,[4]; [20],66%
same,GALAP Obs,[4]; [21],77%
same,KCHSC Obs,[5]; [19],20%
same,KCHSC Obs,[5]; [20],41%
same,KCHSC Obs,[5]; [21],62%
same,LAMPU Obs,[6]; [19],80%
same,LAMPU Obs,[6]; [20],86%
same,LAMPU Obs,[6]; [21],94%
same,MATCH Obs,[7]; [19],20%
same,MATCH Obs,[7]; [20],25%
same,MATCH Obs,[7]; [21],20%
same,PAPRH Obs,[8]; [19],48%
same,PAPRH Obs,[8]; [20],28%
same,PAPRH Obs,[8]; [21],35%
same,SASKR Obs,[9]; [19],15%
same,SASKR Obs,[9]; [20],50%
same,SASKR Obs,[9]; [21],67%
same,SINAR Obs,[10]; [19],70%
same,SINAR Obs,[10]; [20],73%
same,STEME Obs,[11]; [19],25%
same,STEME Obs,[11]; [20],25%
same,STEME Obs,[11]; [21],27%
same,VERPE Obs,[12]; [19],20%
same,VERPE Obs,[12]; [20],17%
same,VERPE Obs,[12]; [21],23%
same,VIOTR Obs,[13]; [19],30%
same,VIOTR Obs,[13]; [20],20%
same,VIOTR Obs,[13]; [21],20%
same,TRZAS Obs,[14]; [19],0%
same,TRZAS Obs,[14]; [20],0%
same,HORVS Obs,[15]; [19],0%
same,HORVS Obs,[15]; [20],0%
